Reference: BindingDB's records for patent US8575203 (Boehringer Ingelheim International, 2013)

Target: T1, 3-phosphoinositide-dependent protein kinase 1 (Homo sapiens, UniProt O15530)
T1 sequence (O15530 whole entry): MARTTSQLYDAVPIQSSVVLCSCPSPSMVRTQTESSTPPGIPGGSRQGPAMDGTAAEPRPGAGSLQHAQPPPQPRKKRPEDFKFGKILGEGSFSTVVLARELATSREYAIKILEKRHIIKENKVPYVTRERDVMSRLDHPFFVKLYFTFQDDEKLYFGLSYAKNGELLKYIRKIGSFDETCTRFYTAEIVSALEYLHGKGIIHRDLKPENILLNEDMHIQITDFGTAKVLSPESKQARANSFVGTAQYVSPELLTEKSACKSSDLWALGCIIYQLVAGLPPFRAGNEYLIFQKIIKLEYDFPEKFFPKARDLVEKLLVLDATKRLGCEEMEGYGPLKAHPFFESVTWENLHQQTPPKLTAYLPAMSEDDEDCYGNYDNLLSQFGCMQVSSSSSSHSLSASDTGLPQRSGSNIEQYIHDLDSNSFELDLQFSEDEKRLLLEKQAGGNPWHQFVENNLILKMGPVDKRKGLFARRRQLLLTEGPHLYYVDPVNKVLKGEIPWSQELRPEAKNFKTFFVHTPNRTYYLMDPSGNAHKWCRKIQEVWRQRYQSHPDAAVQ
Test: Kinase Assay
Method: The activity of the compounds according to the invention on the kinase PDK1 which inhibits the signal transduction pathway is determined in an in vitro kinase assay with recombinantly prepared protein.

## CN(C)C(=O)c1cnc2ccc(C#CCNC(=O)c3cncn(Cc4ccc(F)c(F)c4)c3=O)cc2n1 [US8575203, II-70]
  IC50: 185 nM
